{"source": "paper PMC4830539", "about": "“Chemical Inhibition of Histone Deacetylases 1 and 2 Induces Fetal Hemoglobin through Activation of GATA2” (PLoS ONE, 2016)", "key": {"HBG mRNA": {"system": "HBG mRNA", "assay": "HBG induction in GATA2 knockdown BM cells", "assay_type": "cell-based, human", "conditions": "1 μM, 4 days, CS1 expansion media", "protocol": "shRNA experiments were conducted using the RNAi consortium (TRC) TRC1.5 vector, also known as pLKO.1-puro (Sigma). Five vectors containing shRNA targeting GATA2 were screened in expanded BM cells and the two hairpins yielding the greatest knockdown of GATA2 mRNA were selected for further use: shG2-1, TRCN0000019264 and shG2-2, TRCN0000019265. […] Lentiviral supernatants were produced in the 293T cell line using shRNA vectors, viral packaging mix (Sigma, SHP001), and TransIT-293 transfection reagent (Mirus Bio, Madison, WI). BM cells were grown for 3 days in CS1 expansion media, and then transduced using lentiviral supernatant’s supplemented with 5 μg/mL of polybrene under room temperature centrifugation at 1200 x g for 75 minutes. Transduced cells were grown for two days to allow for expression of construct, followed by selection for two days in 1 μg/mL of puromycin. The GATA2 overexpression vector (oeG2) was constructed by removing the GFP cassette of the pLKO.1-puro-CMV-TurboGFP vector (Sigma, SHC003) at the 5' NheI and 3' PstI cloning sites and replacing it with the full-length GATA2 transcript sequence (Refseq NM_001145661) (GenScript, Piscataway, NJ). pLKO.1-puro-CMV-TurboGFP vector was used as a control (oeGFP). BM cells were grown for 3 days in CS1 expansion media, and then transduced using the RetroNectin-bound virus method according to manufacturer’s protocol. […]"}, "[1]": {"system": "histone acetylation at GATA2 regulatory regions", "assay": "ChIP-QPCR of histone acetylation at GATA2 regulatory regions", "assay_type": "cell-based, human", "conditions": "-1.8 kb GATA2 regulatory region, 1 μM", "protocol": "Cells were fixed in 1% formaldehyde for 15 minutes at room temperature. Crosslinking reaction was extinguished by adding glycine to 125 mM. Cells were washed three times in PBS, 0.5% lgepal CA-630, 1 mM phenylmethanesulfonyl fluoride (PMSF). Cell pellets were snap frozen on dry ice and stored at -80°C.\nFor ChIP-QPCR experiments, chromatin (11 μg) from vehicle (n = 1) or ACY-957 (n = 1) treated cells was fragmented by sonication, then immunoprecipitated (n = 3, each) using antibodies against histone H3 lysine 9 acetylation (3 μg, ab10812, Abcam), histone H2B lysine 5 acetylation (6 μL, ab40886, Abcam), histone H3 lysine 27 acetylation (3 μg, ab4729, Abcam), or GATA2 (6 μg, SC-9008, Santa Cruz). Specific genomic regions within immunoprecipitated and input DNA was detected using SYBR green QPCR with the following primer pairs:\nTo investigate how HDAC1/2 inhibition drives GATA2 activation, we performed a series of chromatin immunoprecipitation (ChIP) experiments. BM cells were expanded in CS1, and then shifted to CS1 differentiation media in the presence of vehicle or 1 μM ACY-957 for several days, yielding erythroid progenitor cells with TFRC/GYPA differentiation profiles similar to those used for GeneChip experiments and unaffected by compound treatment (Fig 8A and 8B). […]"}, "[2]": {"parameters": "method as in earlier work", "conditions": "rat; cited from earlier work"}}}
{"smiles": "Nc1ccc(-c2cccs2)cc1NC(=O)c1ccc2nc(N3CCNCC3)ccc2c1", "note": "[ACY-957]", "values": [{"measurement": "reduction of the magnitude of HBG mRNA induction in shG2-1 and shG2-2 cells relative to shCtrl cells", "setting": "HBG mRNA", "value": 25, "unit": "%"}, {"measurement": "maximum increases in histone acetylation (H3K9ac, H2BK5ac, H3K27ac)", "setting": "[1]", "value": "4- to 8 fold"}, {"measurement": "pharmacokinetic properties", "setting": "[2]", "value": "favorable"}]}
